The values below come from patent publication US7037919B1, “Tetrahydroquinoline derivatives” (Kaken Pharmaceutical Co. Ltd., priority 1999, dated 2006).

For test [1], the target named is T1, Rat androgen receptors (rat AR) (Rattus norvegicus, UniProt P15207).
T1 construct: from tissue; host or cells: prostate of orchiectomized male SD rats (100,000 x g supernatant)
T1 sequence (P15207 1-902): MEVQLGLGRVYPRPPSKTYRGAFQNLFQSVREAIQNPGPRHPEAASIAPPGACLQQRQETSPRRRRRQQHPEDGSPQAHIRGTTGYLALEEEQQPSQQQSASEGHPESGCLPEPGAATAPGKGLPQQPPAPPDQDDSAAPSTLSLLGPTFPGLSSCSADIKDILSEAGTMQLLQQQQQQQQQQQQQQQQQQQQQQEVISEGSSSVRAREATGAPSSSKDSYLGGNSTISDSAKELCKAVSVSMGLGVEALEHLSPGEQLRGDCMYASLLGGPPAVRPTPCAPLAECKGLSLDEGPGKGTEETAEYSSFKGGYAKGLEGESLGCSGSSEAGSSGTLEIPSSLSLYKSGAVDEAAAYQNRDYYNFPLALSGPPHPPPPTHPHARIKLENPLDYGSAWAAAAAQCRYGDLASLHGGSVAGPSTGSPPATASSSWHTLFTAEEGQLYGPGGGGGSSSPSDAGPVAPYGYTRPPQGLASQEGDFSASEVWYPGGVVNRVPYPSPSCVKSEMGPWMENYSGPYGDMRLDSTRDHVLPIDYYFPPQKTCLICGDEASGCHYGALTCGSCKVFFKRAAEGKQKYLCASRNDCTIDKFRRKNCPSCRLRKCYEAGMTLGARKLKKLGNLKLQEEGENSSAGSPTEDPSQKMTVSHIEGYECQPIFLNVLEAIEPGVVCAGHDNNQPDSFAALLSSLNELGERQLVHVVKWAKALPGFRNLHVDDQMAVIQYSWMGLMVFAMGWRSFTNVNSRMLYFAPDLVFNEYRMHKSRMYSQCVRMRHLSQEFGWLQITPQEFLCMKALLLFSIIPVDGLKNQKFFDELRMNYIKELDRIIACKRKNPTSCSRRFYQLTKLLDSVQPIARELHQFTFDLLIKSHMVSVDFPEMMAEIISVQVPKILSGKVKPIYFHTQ
Description: Test for competitive binding to rat androgen receptors. As to conditions: 3H-testosterone, rat prostate AR fraction; hydroxyflutamide taken as 100. Here is the method: Test for Competitive Binding to Rat Androgen Receptors (Rat AR)
Preparation of rat AR fraction: Prostates were harvested into ice-cooled ET buffer (10 mM Tris, 1 mM EDTA, 5 mM DTT, 10 mM sodium molybdate, pH 7.4) 3 days after orchiectomy in 11-week-old male SD rats. The prostate was finely cut, and ET buffer was added, whereafter the mixture was homogenized using a homogenizer. The homogenate was ultracentrifuged (100,000×g, 60 min, 4° C.), and the supernatant was used as a rat AR fraction (hereinafter referred to as ARF).
Binding test: ^3H-testosterone (hereinafter referred to as ^3H-T) was diluted with ET buffer. Dihydrotestosterone (DHT) was prepared so as to have a concentration (final concentration 1 μM) 400 times the maximum concentration of ^3H-T (2.5 nM). The ^3H-T solution was added to a 1.5 ml tube containing DHT, no DHT, or the test compound with a varying concentration. Further, 200 μg ARF was added to adjust the final volume to 100 μl. The mixture was incubated for 2 hours at 4° C., and then 300 μl of a 0.05% dextran T70-1.0% activated carbon solution was added. The mixture was further incubated for 15 minutes in ice to remove the free ^3H-T. After centrifugation (4° C., 2,500 rpm, 5 min), 275 μl of the supernatant was harvested into a liquid scintillation vial, and 2 ml of clear-sol was added. The mixture was stirred, allowed to stand, and measured for ^3H radioactivity with a liquid scintillation counter.
Calculation of the relative binding inhibition rate: The binding inhibition rate (%) of the compound according to the present invention was calculated from the following equation, and the 50% inhibition concentration (IC50) was calculated by the probit analysis of the concentration-binding inhibition curve.
The relative binding inhibition rate (RBA: Relative Binding Affinity) was obtained from the following equation (Endocrinology 138, 863-870, 1997): RBA=100×(IC50 of hydroxyflutamide)/(IC50 of the compound of the present invention) • RBA's of the compounds of the present invention, calculated as above, are shown in Table 10.

The next test has as its system AR. Description: Assignment of compounds as having AR agonistic or AR antagonistic action (description, no method given). As to conditions: compounds named as usable for category A diseases.

Take `CC(C)NC(=O)NCC(C)(C)C1Nc2ccc([N+](=O)[O-])cc2C2C=CCC21` (centres unmarked) [Example 64, 1-isopropyl-3-[2-methyl-2-(8-nitro-3a,4,5,9b-tetrahydro-3H-cyclopenta[c]quinolin-4-yl)-propyl]urea]: in test [1], the “RBA (Relative Binding Affinity = 100 x IC50 of hydroxyflutamide / IC50 of the compound)” value turned out to be 298.

As for `CC(C)(O)C(=O)Nc1ccc([N+](=O)[O-])c(C(F)(F)F)c1` [Hydroxyflutamide, hydroxyflutamide, reference compound], in test [1], the “RBA (Relative Binding Affinity = 100 x IC50 of hydroxyflutamide / IC50 of the compound)” value was determined as 100. On the same count and under the same terms, as for `CC(=O)NCC(C)(C)C1Nc2ccc([N+](=O)[O-])cc2C2C=CCC21` (centres unmarked) [Example 52], the figure is 478; as for `CC(C)(CNS(C)(=O)=O)C1Nc2ccc([N+](=O)[O-])cc2C2C=CCC21` (centres unmarked) [Example 59], 2288.

Take `Cc1cccc(NC(=O)NCC(C)(C)C2Nc3ccc([N+](=O)[O-])cc3C3C=CCC32)c1` (centres unmarked) [Example 65]: in the test on AR, the AR agonistic action entry is reported as “AR agonistic action”.

Turning to `CC(C)(CO)C1Nc2cccc([N+](=O)[O-])c2C2C=CCC21` (centres unmarked) [Example 7], the “RBA (Relative Binding Affinity = 100 x IC50 of hydroxyflutamide / IC50 of the compound)” value in test [1] amounted to 65. Same read-out and setting: as for `CC(=O)Nc1ccc(S(=O)(=O)NCC(C)(C)C2Nc3ccc([N+](=O)[O-])cc3C3C=CCC32)cc1` (centres unmarked) [Example 63], the figure is 580; as for `CC(C)C(=O)NCC(C)(C)C1Nc2ccc([N+](=O)[O-])cc2C2C=CCC21` (centres unmarked) [Example 53], 55. Still for that read-out and setting: under `CCNC(=S)NCC(C)(C)C1Nc2ccc([N+](=O)[O-])cc2C2C=CCC21` (centres unmarked) [Example 68] stands 491.

On to `CC(C)(C)OC(=O)NCC(C)(C)C1Nc2ccc([N+](=O)[O-])cc2C2C=CCC21` (centres unmarked) [Example 25], for which, in the test with AR, the AR agonistic action result is given as “AR agonistic action”. Turning to `CC(C)(CCl)C1Nc2ccc([N+](=O)[O-])cc2C2C=CCC21` (centres unmarked) [Example 29], the “RBA (Relative Binding Affinity = 100 x IC50 of hydroxyflutamide / IC50 of the compound)” value in test [1] came to 75.

Turning to `CC(=O)OCC(C)(C)C1Nc2ccc([N+](=O)[O-])cc2C2C=CCC21` (centres unmarked) [Example 23], in the test on AR, the AR agonistic action entry is on record as “AR agonistic action”. For the molecule `CC(C)(OCc1ccccc1)C1Nc2ccc([N+](=O)[O-])cc2C2C=CCC21` (centres unmarked) [Example 21], the “RBA (Relative Binding Affinity = 100 x IC50 of hydroxyflutamide / IC50 of the compound)” value in test [1] is recorded as 74. Turning to `CC(C)(CNC(=O)Nc1ccc([N+](=O)[O-])cc1)C1Nc2ccc([N+](=O)[O-])cc2C2C=CCC21` (centres unmarked) [Example 66], the AR agonistic action entry with AR is given as “AR agonistic action”. As to `COC(C)(C)C1Nc2ccc([N+](=O)[O-])cc2C2C=CCC21` (centres unmarked) [Example 19], the “RBA (Relative Binding Affinity = 100 x IC50 of hydroxyflutamide / IC50 of the compound)” value in test [1] came to 57. Take `CC(C)(CNS(=O)(=O)c1ccc(F)cc1)C1Nc2ccc([N+](=O)[O-])cc2C2C=CCC21` (centres unmarked) [Example 61]: the “RBA (Relative Binding Affinity = 100 x IC50 of hydroxyflutamide / IC50 of the compound)” value in test [1] came out at 169. The same measure, in the same setting: under `CC(C)(CO)C1Nc2ccc(C#N)cc2C2C=CCC21` (centres unmarked) [Example 35, 4-(2-Hydroxy-1,1′-dimethyl-ethyl)-3a,4,5,9b-tetrahydro-3H-cyclopenta[c]quinoline-8-carbonitrile] stands 236; under `CC(=O)SCC(C)(C)C1Nc2ccc([N+](=O)[O-])cc2C2C=CCC21` (stereo not drawn) [Example 76, thioacetic acid S-[2-methyl-2-(8-nitro-3a,4,5,9b-tetrahydro-3H-cyclopenta[c]quinolin-4-yl)propyl]ester], 131.

Take `CNC(=S)NCC(C)(C)C1Nc2ccc([N+](=O)[O-])cc2C2C=CCC21` (centres unmarked) [Example 67]: the AR agonistic action result in the test with AR is “AR agonistic action”. On to `CC(=O)OCC(C)(C)C1Nc2ccc(C#N)cc2C2C=CCC21` (centres unmarked) [Example 40, acetic acid 2-(8-cyano-3a,4,5,9b-tetrahydro-3H-cyclopentatc[c]quinolin-4-yl)-2-methylpropyl ester], for which, in test [1], the “RBA (Relative Binding Affinity = 100 x IC50 of hydroxyflutamide / IC50 of the compound)” value was found to be 96.
